The values that follow come from US20160228452A1, “TREATMENT OF METABOLIC DISEASES BY INHIBTION OF HTR2A OR HTR3” (Korea Advanced Institute of Science and Technology, priority 2014, published 2016).

Data set [1] in a line: High-fat-diet-induced obesity in mice: growth curves, body weight and eWAT mass. The class given is in vivo. As to conditions: LP-533401 30 mg/kg orally daily, 10 weeks, SCD or HFD. An excerpt: The generation of Tph^flox/flox mice, Adipoq-cre mice, and aP2-CreERT2 mice has previously been reported^17,30,31. C57BL/6J mice, Htr3a-targeted KO mice (B6.129X1-Htr3a^tm1jul/J, Htr3a KO) and leptin-deficient ob/ob mice (B6.V-Lep^ob/J) were purchased from the Jackson Laboratory (Bar Harbor, Me., USA). To create the adipose tissue-specific Tph1 KO mice, Tph1^flox/flox mice were crossed with Adipoq-Cre mice (Tph1 FKO mice) and aP2-CreERT2 mice (Tph1 AFKO mice). The mice were housed in climate-controlled, specific pathogen-free (SPF) barrier facilities under a 12-h light-dark cycle, and chow and water were provided ad libitum. The Institutional Animal Care and Use Committee at the Korea Advanced Institute of Science and Technology approved the experimental protocols for this study. Htr3a KO mice and Tph1^flox/flox mice were backcrossed with C57BL/6J mice for more than 10 generations. Cre-recombination of 6-week-old Tph1 AFKO mice was induced by intraperitoneal (IP) injection of 5 doses of 2 mg of tamoxifen (Sigma) for 1 week. We fed male mice (aged 8˜10 weeks) either on SCD (standard chow diet; 12% fat calories, Purina Laboratory Rodent Diets 38057) or HFD (60% fat calories, Research Diets D12492). PBS or 300 mg/kg PCPA was administered as a daily intraperitoneal injection. LP-533401 was dissolved in PEG-400 and 5% dextrose (40:60 ratio). Vehicle or 30 mg/kg LP-533401 was administered daily with a feeding needle. We randomly divided C57BL/6J mice into 2-4 groups. For transgenic mice, we compared data between KO mice and their WT littermates. No blinding was done.

The conditions of data set [2]: reference 18; cited from earlier work.
Data set [3] can be described thus: Glucose tolerance test and insulin tolerance test. It counts as in vivo, mice. As to conditions: LP-533401 30 mg/kg orally, 10 weeks, HFD-fed mice vs HFD-fed control. The procedure:
For the glucose tolerance tests, the mice were administered 2 g/kg D-glucose in PBS after overnight fasting. For the insulin tolerance tests, the mice were intraperitoneally injected with insulin (0.75 U/kg) after being fasted for 4 h. The blood glucose levels in blood samples obtained from tail veins 0, 15, 30, 45, 60, 90 and 120 min after injection were measured using a Gluco DR Plus glucometer (Allmedicus).

Data set [4] addresses T1, Htr3 (Mus musculus, UniProt P23979).
T1 construct: we explored the direct actions of Htr3 on BAT using immortalized brown adipocytes (IBAs); endogenous in cells; host or cells: differentiated immortalized brown adipocytes (IBAs)
T1 sequence (P23979 24-489): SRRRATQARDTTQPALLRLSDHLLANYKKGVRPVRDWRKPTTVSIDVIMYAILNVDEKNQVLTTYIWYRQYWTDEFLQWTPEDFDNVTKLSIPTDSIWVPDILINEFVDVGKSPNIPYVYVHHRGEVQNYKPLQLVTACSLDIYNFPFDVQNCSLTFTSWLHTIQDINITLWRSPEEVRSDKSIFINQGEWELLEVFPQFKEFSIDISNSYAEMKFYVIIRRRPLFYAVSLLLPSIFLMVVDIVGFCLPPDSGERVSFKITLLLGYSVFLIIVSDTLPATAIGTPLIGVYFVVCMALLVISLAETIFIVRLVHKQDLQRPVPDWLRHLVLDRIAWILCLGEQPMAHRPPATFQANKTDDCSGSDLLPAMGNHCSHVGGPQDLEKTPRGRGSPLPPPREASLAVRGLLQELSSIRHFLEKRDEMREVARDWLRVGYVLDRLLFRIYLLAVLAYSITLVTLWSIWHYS
T1 sequence (Q9JHJ5 22-437 partner): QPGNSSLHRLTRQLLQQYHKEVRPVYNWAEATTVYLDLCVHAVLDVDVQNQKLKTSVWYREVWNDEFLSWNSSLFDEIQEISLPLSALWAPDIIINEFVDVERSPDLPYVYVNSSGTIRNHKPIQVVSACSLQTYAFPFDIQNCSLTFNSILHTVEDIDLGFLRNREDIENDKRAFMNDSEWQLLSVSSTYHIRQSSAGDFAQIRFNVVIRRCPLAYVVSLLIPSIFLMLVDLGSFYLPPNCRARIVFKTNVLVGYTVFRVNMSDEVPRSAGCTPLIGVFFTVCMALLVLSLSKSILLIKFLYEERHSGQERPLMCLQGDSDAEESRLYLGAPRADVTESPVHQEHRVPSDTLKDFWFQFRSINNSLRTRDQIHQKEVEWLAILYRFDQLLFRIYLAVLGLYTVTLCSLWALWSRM
The experiment in a line: Real-time PCR of thermogenic genes in IBAs. As to conditions: 2 h after Htr3 agonist treatment. The class given is cell-based. The procedure: (§1) IBAs were cultured in DMEM supplemented with 10% FBS and P/S in a humidified atmosphere of 5% CO2 at 37° C.^32. After reaching 95% confluence, the cells were induced to differentiate using DMEM with 10% FBS, 0.5 μg/mL insulin, 1 nM T3, 0.125 mM indomethacin, 2 μg/mL dexamethasone, 0.5 μM IBMX and P/S (day 0). After two days, the medium was replaced with DMEM supplemented with 10% FBS, 0.5 μg/mL insulin, 1 nM T3 and P/S (day 2), and it was changed every two days from days 4 to 8. We confirmed that these cell lines are free from Mycoplasma infection.
Total RNA was extracted from the mouse tissues or cell lines using TRIzol reagent (Invitrogen) according to the manufacturer's protocol. After TURBO DNase (Invitrogen) treatment, 2 μg of total RNA was used to generate complementary DNA with Superscript III reverse transcriptase (Invitrogen). To analyze gene expression, real-time PCR was performed with a ViiA 7 Real-Time PCR system (Applied Biosystems) and the Power SYBR Green PCR master mix (Applied Biosystems). Relative quantification was based on the ddCt method, and ActB was used as an endogenous control (internal control).
(Real-time PCR tracks product formation cycle by cycle.)

The target in data set [5] is T1, Htr3. The experiment in a line: cAMP assay (competitive ELISA) in immortalized brown adipocytes. The class given is cell-based. As to conditions: IBAs, 1 uM ondansetron or 100 nM m-CPBG, 15 min. The procedure:
as §1
Differentiated IBAs were treated with 1 uM ondansetron or 100 nM m-CPBG or 1 uM CL-316243 for 15 min. 1 uM […] was used as a positive control. The cAMP competitive ELISA (Promega) was performed according to the manufacturer's instruction. Briefly, cAMP was extracted by adding 0.1 M HCl with 0.5% triton X-100 to the cells. After centrifugation at 600 g for 10 min, the supernatant was used for the determination of cAMP levels by competitive cAMP ELISA.
(Cyclic AMP is a second messenger, typically raised through Gs and lowered through Gi signalling.)

The target in data set [6] is T1, Htr3. Description: Western blot for phosphorylation of PKA pathway components in IBAs. The class given is cell-based. As to conditions: IBAs, Htr3 agonist treatment. The procedure:
as §1
Whole-cell lysates were extracted by incubating cells in RIPA buffer (25 mM Tris-HCl pH 7.6, 150 mM NaCl, 1% NP-40, 1% sodium deoxycholate, 0.1% SDS) plus protease inhibitors (Roche). Supernatant was collected following a brief centrifuge, and protein concentrations in the supernatant were determined using the BCA Protein Assay Kit (Thermo Scientific, Rockford, Ill., USA). The cell lysates were then mixed with equal volumes of 2× Laemmli buffer (4% SDS, 20% glycerol, 10% 2-mercaptoethanol, 0.01% bromophenol blue, and 120 mM Tris-HCl, pH 6.8) and boiled for 5 min at 95° C. Then, the protein samples were separated by SDS-PAGE and transferred to a PVDF membrane (Millipore). […]
For orientation: A western blot detects proteins with antibodies after separation by electrophoresis.

Take `Nc1nc(OC(c2ccc(-c3cccc(F)c3)cc2)C(F)(F)F)cc(-c2ccc(C[C@H](N)C(=O)O)cc2)n1` (stereo partly drawn) [LP-533401]: the “anti-obesity effects (growth curves)” value in data set [1] is “also observed”. Also, in data set [2], the “crossing of the blood-brain barrier” value is “cannot cross the blood-brain barrier”. Besides, in data set [3], the “glucose tolerance (IPGTT)” value is on record as “improved glucose tolerance”.

With `N=C(N)NC(=N)Nc1cccc(Cl)c1` [m-CPBG, 1-(m-chlorophenyl)-biguanide], the “Ucp1 mRNA level” value on Htr3 [4] is given as “decreased”. Further, the “cAMP level in the absence of β3AR agonist” value on Htr3 [5] is given as “did not affect cAMP levels”. The “phosphorylation of HSL and PKA substrate” value on Htr3 [6] is reported as “decreased”.
